Source: US10829473B2, “Modulators of the cystic fibrosis transmembrane conductance regulator protein and methods of use” (AbbVie Overseas S.Á.R.L., priority 2017, dated 2020)
Like-named read-outs stand apart in the source and are kept apart here. Marks after values point to notes of the source that are not given here.

Target: T1, F508delCFTR (Homo sapiens, UniProt P13569, DEL508-508)
T1 construct: expressed in transfected cells; host or cells: CFBE41o- human lung derived epithelial cells (CFBE41o-F508delCFTR-HRP), doxycycline-inducible
T1 sequence (P13569 with tags, fused parts or gaps DEL508-508): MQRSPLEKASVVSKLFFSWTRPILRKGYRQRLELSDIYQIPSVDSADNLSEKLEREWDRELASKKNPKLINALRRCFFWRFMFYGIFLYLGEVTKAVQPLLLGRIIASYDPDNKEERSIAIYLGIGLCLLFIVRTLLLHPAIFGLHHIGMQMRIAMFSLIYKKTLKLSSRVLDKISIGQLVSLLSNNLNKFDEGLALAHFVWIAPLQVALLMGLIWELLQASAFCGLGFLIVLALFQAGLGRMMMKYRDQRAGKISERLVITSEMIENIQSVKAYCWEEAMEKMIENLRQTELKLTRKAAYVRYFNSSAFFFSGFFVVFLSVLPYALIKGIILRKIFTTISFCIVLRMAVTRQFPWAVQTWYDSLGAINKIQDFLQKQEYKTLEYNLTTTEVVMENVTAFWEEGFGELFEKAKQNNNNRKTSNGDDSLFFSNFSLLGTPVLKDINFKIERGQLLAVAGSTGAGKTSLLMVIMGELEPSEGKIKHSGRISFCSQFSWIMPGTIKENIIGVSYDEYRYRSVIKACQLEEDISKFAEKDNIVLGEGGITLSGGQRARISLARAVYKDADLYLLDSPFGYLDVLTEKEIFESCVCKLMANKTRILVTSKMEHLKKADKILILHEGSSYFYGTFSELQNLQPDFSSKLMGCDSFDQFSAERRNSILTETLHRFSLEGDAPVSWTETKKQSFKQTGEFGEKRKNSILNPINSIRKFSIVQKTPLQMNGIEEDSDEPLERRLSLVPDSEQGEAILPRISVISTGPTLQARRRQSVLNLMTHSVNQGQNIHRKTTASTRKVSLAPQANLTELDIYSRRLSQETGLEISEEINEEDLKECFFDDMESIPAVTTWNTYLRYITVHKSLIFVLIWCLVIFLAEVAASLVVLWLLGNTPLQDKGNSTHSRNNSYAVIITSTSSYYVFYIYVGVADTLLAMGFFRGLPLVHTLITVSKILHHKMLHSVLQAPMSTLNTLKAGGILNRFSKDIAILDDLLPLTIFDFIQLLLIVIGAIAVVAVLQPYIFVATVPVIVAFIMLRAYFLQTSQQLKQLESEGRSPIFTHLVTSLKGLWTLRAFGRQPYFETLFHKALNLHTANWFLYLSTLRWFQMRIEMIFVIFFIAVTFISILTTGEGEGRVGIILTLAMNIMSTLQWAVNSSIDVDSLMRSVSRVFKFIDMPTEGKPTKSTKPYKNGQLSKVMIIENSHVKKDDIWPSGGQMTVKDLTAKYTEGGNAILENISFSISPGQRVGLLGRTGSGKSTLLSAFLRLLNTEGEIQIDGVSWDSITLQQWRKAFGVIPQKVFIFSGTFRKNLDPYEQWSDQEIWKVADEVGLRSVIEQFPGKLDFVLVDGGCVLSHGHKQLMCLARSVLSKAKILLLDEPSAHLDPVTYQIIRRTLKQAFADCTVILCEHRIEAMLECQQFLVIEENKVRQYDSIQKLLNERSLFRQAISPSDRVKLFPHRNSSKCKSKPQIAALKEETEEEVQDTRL
Experiment: Cell Surface Expression-Horse Radish Peroxidase (CSE-HRP) Assay;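 as to EC50 (with co-corrector): co-corrector chromenyl benzoic acid corrector at 2 or 3 µM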;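 as to Maximum % activity (without co-corrector): % of on-plate positive control chromenyl benzoic acid corrector at 2 or 3 µM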
Format: cell-based
Conditions: for Maximum % activity (with co-corrector) / Emax: maximum at any tested concentration; for Emax: read-out: Maximum % activity (without co-corrector)
In short: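 Corrector compounds were given as 8-point 3-fold series from 20 or 30 μM, with or without a 2 μM co-corrector, for 18-24 h at 33 °C. Surface HRP was read by luminol luminescence as % of positive control; variable-Hill-slope sigmoidal fitting gave EC50 from triplicate plates.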

[1] = test compound with co-corrector
[2] = test compound with co-corrector, read-out: EC50 (with co-corrector)
[3] = test compound without co-corrector
[4] = test compound without co-corrector, read-out: EC50 (without co-corrector)
[5] = test compound alone, without co-corrector, read-out: EC50 (without co-corrector)
[6] = with co-corrector, read-out: EC50 (with co-corrector)

In the case of `COCC1CCN(c2ncc(C3CCC3)cc2C2(C(=O)NS(=O)(=O)c3cccc4[nH]ccc34)CC2)CC1` [Example GI-118, 1-{5-cyclobutyl-2-[4-(methoxymethyl)piperidin-1-yl]pyridin-3-yl}-N-(1H-indole-4-sulfonyl)cyclopropane-1-carboxamide], the “Maximum % activity (with co-corrector)” value [1] is reported as “+++ (≥350)”, the EC50 [2] is reported as < 3 µM and the Emax [3] is reported as > 150%. For the same compound, the EC50 [4] was < 3 µM.

In the case of `Cc1ccc(S(=O)(=O)NC(=O)C2(c3cccc(Cl)c3)CC2)cc1C` [Example III-74, 1-(3-chlorophenyl)-N-(3,4-dimethylbenzene-1-sulfonyl)cyclopropane-1-carboxamide], the EC50 [5] is reported as > 10 µM, the “Maximum % activity (with co-corrector)” value (with co-corrector) is reported as “+ (<150)” and the EC50 [6] is reported as > 10 µM. The Emax (without co-corrector) was < 50%.

In the case of `COc1ccc(C)nc1C1(C(=O)NS(=O)(=O)c2cccc3ccccc23)CC1` [Example III-125, 1-(3-methoxy-6-methylpyridin-2-yl)-N-(naphthalene-1-sulfonyl)cyclopropane-1-carboxamide], the EC50 [5] is reported as 3 to 10 µM, the “Maximum % activity (with co-corrector)” value (with co-corrector) is reported as “+++ (≥350)” and the EC50 [6] is reported as 3 to 10 µM. The Emax (without co-corrector) was > 150%.

With `O=C(NS(=O)(=O)c1cccnc1)C1(c2ccc(Cl)cc2Cl)CC1` [Example III-59, 1-(2,4-dichlorophenyl)-N-(pyridine-3-sulfonyl)cyclopropane-1-carboxamide] the EC50 [5] was > 10 µM, the “Maximum % activity (with co-corrector)” value (with co-corrector) was “+ (<150)” and the EC50 [6] was 3 to 10 µM. For the same compound, the Emax (without co-corrector) was < 50%.

`COc1ccc(C)c(C2(C(=O)NS(=O)(=O)c3cccc4ncccc34)CCN(C)CC2)c1` [Example III-94, 4-(5-methoxy-2-methylphenyl)-1-methyl-N-(quinoline-5-sulfonyl)piperidine-4-carboxamide] was tested, and the EC50 [5] was > 10 µM, the “Maximum % activity (with co-corrector)” value (with co-corrector) was “+ (<150)” and the EC50 [6] was > 10 µM. For the same compound, the Emax (without co-corrector) was < 50%.

In the case of `CC(C)Oc1ncc(C2CC2)cc1C1(C(=O)NS(=O)(=O)c2cccc3[nH]ccc23)CC1` [Example GI-61, 1-{5-cyclopropyl-2-[(propan-2-yl)oxy]pyridin-3-yl}-N-(1H-indole-4-sulfonyl)cyclopropane-1-carboxamide], the “Maximum % activity (with co-corrector)” value [1] is reported as “+++ (≥350)”, the EC50 [2] is reported as < 3 µM and the Emax [3] is reported as > 150%. For the same compound, the EC50 [4] was < 3 µM.

With `COc1ncc(C2CCC2)cc1C1(C(=O)NS(=O)(=O)c2cccc3ncccc23)CC1` [Example I-4, 1-(5-cyclobutyl-2-methoxypyridin-3-yl)-N-(quinoline-5-sulfonyl)cyclopropane-1-carboxamide] the EC50 [5] was < 3 µM, the “Maximum % activity (with co-corrector)” value (with co-corrector) was “+++ (≥350)” and the EC50 [6] was < 3 µM. For the same compound, the Emax (without co-corrector) was > 150%.

In the case of `COc1ccc(C2(C(=O)NS(=O)(=O)c3cccc4ncccc34)CC2)c(C)n1` [GIII-8], the “EC50 (with co-corrector)” value [1] is reported as “++^a”, the “Maximum % activity (with co-corrector)” value [1] is reported as “++ (≥150 and <350)” and the “EC50 (without co-corrector)” value [3] is reported as “++^a”. The Emax [3] was 50 to 150%.

With `Cc1cnc(OC(C)C)c(C2(C(=O)NS(=O)(=O)c3cccc4nc(N)ccc34)CC2)c1` [Example I-97, N-(2-aminoquinoline-5-sulfonyl)-1-{5-methyl-2-[(propan-2-yl)oxy]pyridin-3-yl}cyclopropane-1-carboxamide] the EC50 [5] was < 3 µM, the “Maximum % activity (with co-corrector)” value (with co-corrector) was “+++ (≥350)” and the EC50 [6] was < 3 µM. For the same compound, the Emax (without co-corrector) was > 150%.

In the case of `COc1cnc(N2CCCC2)c(C2(C(=O)NS(=O)(=O)c3cccc4ncccc34)CC2)c1` [GII-40, 1-[5-methoxy-2-(pyrrolidin-1-yl)pyridin-3-yl]-N-(quinoline-5-sulfonyl)cyclopropane-1-carboxamide], the “Maximum % activity (with co-corrector)” value [1] is reported as “+++ (≥350)”, the EC50 [2] is reported as 3 to 10 µM and the Emax [3] is reported as > 150%. The EC50 [4] was 3 to 10 µM.

In the case of `Cc1cnc(OCC(C)C)c(C2(C(=O)NS(=O)(=O)c3cccc4nc(N)ccc34)CC2)c1` [Example I-96, N-(2-aminoquinoline-5-sulfonyl)-1-[5-methyl-2-(2-methylpropoxy)pyridin-3-yl]cyclopropane-1-carboxamide], the EC50 [5] is reported as < 3 µM, the “Maximum % activity (with co-corrector)” value (with co-corrector) is reported as “+++ (≥350)” and the EC50 [6] is reported as < 3 µM. The Emax (without co-corrector) was > 150%.

For `CCOc1ccc(C2(OC)CCC2)cc1C1(C(=O)NS(=O)(=O)c2cccc3ncccc23)CC1` [Example I-102, 1-[2-ethoxy-5-(1-methoxycyclobutyl)phenyl]-N-(quinoline-5-sulfonyl)cyclopropane-1-carboxamide], the EC50 [5] was < 3 µM, the “Maximum % activity (with co-corrector)” value (with co-corrector) was “+++ (≥350)” and the EC50 [6] was < 3 µM. The Emax (without co-corrector) was > 150%.

For `COc1ccc(C2(C(=O)NS(=O)(=O)c3cccc4ccccc34)CCC2)cc1OC` [Example III-121, 1-(3,4-dimethoxyphenyl)-N-(naphthalene-1-sulfonyl)cyclobutane-1-carboxamide], the EC50 [5] was > 10 µM, the “Maximum % activity (with co-corrector)” value (with co-corrector) was “+ (<150)” and the EC50 [6] was > 10 µM. The Emax (without co-corrector) was < 50%.

With `O=C(NS(=O)(=O)C1CC1)C1(c2ccc(Cl)cc2Cl)CC1` [Example III-28, N-(cyclopropanesulfonyl)-1-(2,4-dichlorophenyl)cyclopropane-1-carboxamide] the EC50 [5] was > 10 µM, the “Maximum % activity (with co-corrector)” value (with co-corrector) was “+ (<150)” and the EC50 [6] was 3 to 10 µM. The Emax (without co-corrector) was < 50%.

`CCOC(C)(C)c1ccc(OC(F)F)c(C2(C(=O)NS(=O)(=O)c3cccc4ncccc34)CC2)c1` [II-106] was tested, and the EC50 [5] was 3 to 10 µM, the “Maximum % activity (with co-corrector)” value (with co-corrector) was “+++ (≥350)” and the EC50 [6] was 3 to 10 µM. The Emax (without co-corrector) was > 150%.

For `Cc1cnc(OCC(C)C)c(C2(C(=O)NS(=O)(=O)c3cccc4nc(C)ccc34)CC2)c1` [Example GI-43, 1-[5-methyl-2-(2-methylpropoxy)pyridin-3-yl]-N-(2-methylquinoline-5-sulfonyl)cyclopropane-1-carboxamide], the “Maximum % activity (with co-corrector)” value [1] was “+++ (≥350)”, the EC50 [2] was < 3 µM and the Emax [3] was > 150%. The EC50 [4] was < 3 µM.

In the case of `COc1ccc(C)cc1C1(C(=O)NS(=O)(=O)c2cccc3[nH]ncc23)CC1` [Example I-53, N-(1H-indazole-4-sulfonyl)-1-(2-methoxy-5-methylphenyl)cyclopropane-1-carboxamide], the EC50 [5] is reported as 3 to 10 µM, the “Maximum % activity (with co-corrector)” value (with co-corrector) is reported as “+++ (≥350)” and the EC50 [6] is reported as < 3 µM. For the same compound, the Emax (without co-corrector) was > 150%.

With `COc1ccc(C(F)(F)F)cc1C1(C(=O)NS(=O)(=O)c2cccc3ncccc23)CC1` [Example I-37, 1-[2-methoxy-5-(trifluoromethyl)phenyl]-N-(quinoline-5-sulfonyl)cyclopropane-1-carboxamide] the EC50 [5] was < 3 µM, the “Maximum % activity (with co-corrector)” value (with co-corrector) was “+++ (≥350)” and the EC50 [6] was < 3 µM. The Emax (without co-corrector) was > 150%.

For `Cc1ccc2c(S(=O)(=O)NC(=O)C3(c4cccnc4N4CCCC4)CC3)cccc2n1` [GII-34, N-(2-methylquinoline-5-sulfonyl)-1-[2-(pyrrolidin-1-yl)pyridin-3-yl]cyclopropane-1-carboxamide], the “EC50 (with co-corrector)” value [1] was “++^a”, the “Maximum % activity (with co-corrector)” value [1] was “++ (≥150 and <350)” and the “EC50 (without co-corrector)” value [3] was “++^a”. It also gave an Emax [3] of 50 to 150%.

For `CCc1ccc(O[C@@H]2CCOC2)c(C2(C(=O)NS(=O)(=O)c3cccc4nc(C)ccc34)CC2)c1` [Example I-119, 1-(5-ethyl-2-{[(3R)-oxolan-3-yl]oxy}phenyl)-N-(2-methylquinoline-5-sulfonyl)cyclopropane-1-carboxamide], the EC50 [5] was < 3 µM, the “Maximum % activity (with co-corrector)” value (with co-corrector) was “+++ (≥350)” and the EC50 [6] was < 3 µM. The Emax (without co-corrector) was > 150%.

`COc1ccc(C2CC2)cc1C1(C(=O)NS(=O)(=O)c2cccc3ncccc23)CC1` [II-57] was tested, and the “Maximum % activity (with co-corrector)” value (with co-corrector) was “+++ (≥350)” and the Emax (without co-corrector) was > 150%.

`CCc1cnc(N2CCC(COC)CC2)c(C2(C(=O)NS(=O)(=O)c3cccc4ncccc34)CC2)c1` [GII-59, 1-{5-ethyl-2-[4-(methoxymethyl)piperidin-1-yl]pyridin-3-yl}-N-(quinoline-5-sulfonyl)cyclopropane-1-carboxamide] was tested, and the “Maximum % activity (with co-corrector)” value [1] was “+++ (≥350)”, the EC50 [2] was 3 to 10 µM and the Emax [3] was > 150%. For the same compound, the EC50 [4] was 3 to 10 µM.

For `Cc1ccc2c(S(=O)(=O)NC(=O)C3(c4cc(OC(C)C)cnc4OC(C)C)CC3)cccc2n1` [Example GI-67, 1-{2,5-bis[(propan-2-yl)oxy]pyridin-3-yl}-N-(2-methylquinoline-5-sulfonyl)cyclopropane-1-carboxamide], the “Maximum % activity (with co-corrector)” value [1] was “+++ (≥350)”, the EC50 [2] was < 3 µM and the Emax [3] was > 150%. The EC50 [4] was 3 to 10 µM.

With `CCc1cnc(N2CCC(OC(C)C)CC2)c(C2(C(=O)NS(=O)(=O)c3cccc4ncccc34)CC2)c1` [GII-54, 1-(5-ethyl-2-{4-[(propan-2-yl)oxy]piperidin-1-yl}pyridin-3-yl)-N-(quinoline-5-sulfonyl)cyclopropane-1-carboxamide] the “Maximum % activity (with co-corrector)” value [1] was “+++ (≥350)”, the EC50 [2] was 3 to 10 µM and the Emax [3] was > 150%. The EC50 [4] was 3 to 10 µM.

With `CC(C)(C)OC(=O)N1CCC(S(=O)(=O)NC(=O)C2(c3ccc(Cl)cc3Cl)CC2)CC1` [Example III-80, tert-butyl 4-{[1-(2,4-dichlorophenyl)cyclopropane-1-carbonyl]sulfamoyl}piperidine-1-carboxylate] the EC50 [5] was > 10 µM, the “Maximum % activity (with co-corrector)” value (with co-corrector) was “+ (<150)” and the EC50 [6] was > 10 µM. For the same compound, the Emax (without co-corrector) was < 50%.

`Cc1ccc(OC(F)F)c(C2(C(=O)NS(=O)(=O)c3cccc4nc(C)ccc34)CC2)c1` [II-101] was tested, and the EC50 [5] was < 3 µM, the “Maximum % activity (with co-corrector)” value (with co-corrector) was “+++ (≥350)” and the EC50 [6] was < 3 µM. The Emax (without co-corrector) was > 150%.

`COc1ncc(C2CCC2)cc1C1(C(=O)NS(=O)(=O)c2cccc3ccccc23)CC1` [Example I-5, 1-(5-cyclobutyl-2-methoxypyridin-3-yl)-N-(naphthalene-1-sulfonyl)cyclopropane-1-carboxamide] was tested, and the EC50 [5] was 3 to 10 µM, the “Maximum % activity (with co-corrector)” value (with co-corrector) was “+++ (≥350)” and the EC50 [6] was < 3 µM. The Emax (without co-corrector) was > 150%.
